From the NIST ThermoML archive (doi:10.1016/j.tca.2015.04.027)
Numbers after ± are expanded uncertainties.

Experiments:
[1] = xn = mol fraction of the nth substance listed; settings: 87 kPa, Liquid, Vibrating tube method
[2] = 87 kPa, Liquid, Vibrating tube method

C=CCO [2-propenol] + OC(CCl)CCl
[1], x2 = 0
Settings | mass density [kg/m3]
298.15 K | 850.4 ± 1.2
303.15 K | 846.02 ± 1.2
308.15 K | 841.59 ± 1.2
313.15 K | 837.13 ± 1.2
318.15 K | 832.63 ± 1.2

C=CCO [2-propenol] + CCOS(=O)(=O)[O-].CCn1cc[n+](C)c1
mass density [kg/m3], [1]
Settings | 298.15 K | 303.15 K | 308.15 K | 313.15 K | 318.15 K
x1 = 0.0988 | 1223.65 ± 1.6 | 1220.28 ± 1.6 | 1216.87 ± 1.6 | 1213.47 ± 1.6 | 1210.09 ± 1.6
x1 = 0.1811 | 1211.14 ± 1.6 | 1207.72 ± 1.6 | 1204.27 ± 1.6 | 1200.85 ± 1.5 | 1197.44 ± 1.5
x1 = 0.2833 | 1193.07 ± 1.5 | 1189.54 ± 1.5 | 1186.02 ± 1.5 | 1182.52 ± 1.5 | 1179.15 ± 1.5
x1 = 0.4107 | 1165.72 ± 1.5 | 1162.19 ± 1.5 | 1158.64 ± 1.5 | 1155.11 ± 1.5 | 1151.59 ± 1.5
x1 = 0.4939 | 1143.57 ± 1.4 | 1140.1 ± 1.4 | 1136.5 ± 1.4 | 1133 ± 1.4 | 1129.55 ± 1.4
x1 = 0.5909 | 1112.3 ± 1.4 | 1109.47 ± 1.4 | 1105.88 ± 1.4 | 1102.21 ± 1.4 | 1098.55 ± 1.4
x1 = 0.7086 | 1064.08 ± 1.4 | 1061.4 ± 1.4 | 1058 ± 1.4 | 1054.02 ± 1.3 | 1049.98 ± 1.4
x1 = 0.8066 | 1012 ± 1.3 | 1009.5 ± 1.3 | 1005.8 ± 1.3 | 1001.87 ± 1.3 | 997.66 ± 1.3
x1 = 0.9057 | 942.5 ± 1.3 | 939.58 ± 1.3 | 935.46 ± 1.3 | 931.33 ± 1.3 | 927.19 ± 1.3
x1 = 0.9835 | 869.29 ± 1.3 | 865.2 ± 1.3 | 860.9 ± 1.3 | 856.62 ± 1.3 | 852.28 ± 1.3
x1 = 1 | 850.4 ± 1.2 | 846.02 ± 1.2 | 841.59 ± 1.2 | 837.13 ± 1.2 | 832.63 ± 1.2

CCOS(=O)(=O)[O-].CCn1cc[n+](C)c1 [1-ethyl-3-methylimidazolium ethyl sulfate] + OC(CCl)CCl
[1], x2 = 0
Settings | mass density [kg/m3]
298.15 K | 1236.42 ± 1.6
303.15 K | 1233.09 ± 1.6
308.15 K | 1229.72 ± 1.6
313.15 K | 1226.36 ± 1.6
318.15 K | 1223 ± 1.6

CCOS(=O)(=O)[O-].CCn1cc[n+](C)c1 [1-ethyl-3-methylimidazolium ethyl sulfate] + C=CCO
[1], x2 = 0
Settings | mass density [kg/m3]
298.15 K | 1236.42 ± 1.6
303.15 K | 1233.09 ± 1.6
308.15 K | 1229.72 ± 1.6
313.15 K | 1226.36 ± 1.6
318.15 K | 1223 ± 1.6

OC(CCl)CCl [1,3-dichloro-2-propanol]
[2]
Settings | mass density [kg/m3]
298.15 K | 1356.46 ± 1.1
303.15 K | 1350.55 ± 1.1
308.15 K | 1344.61 ± 1.1
313.15 K | 1338.56 ± 1.1
318.15 K | 1332.47 ± 1.1
